Results published in ChEMBL document CHEMBL1201862, “PubChem BioAssay data set” (2004).
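Test compounds were applied to cells in 96-well plates for 48 hours at 5 doses. Here, GI50 denotes the concentration required for 50% inhibition of growth.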 Calls of active or inactive are those of the source. Rule as the data show it: active = GI50 up to about 1.1 µM and inactive = higher.

Assays:
Experiment in all cases: growth of human tumour cells (NCI), 48 h
NCI-H226 = tested on: NCI-H226
KM12 = tested on: KM12
DU-145 = tested on: DU-145
SK-MEL-5 = tested on: SK-MEL-5
Malme-3M = tested on: Malme-3M
COLO 205 = tested on: COLO 205
EKVX = tested on: EKVX
PC-3 = tested on: PC-3
NCI-H460 = tested on: NCI-H460
HL-60 = tested on: HL-60
OVCAR-3 = tested on: OVCAR-3
SW-620 = tested on: SW-620
MCF7 = tested on: MCF7
M14 = tested on: M14
SK-MEL-2 = tested on: SK-MEL-2
OVCAR-5 = tested on: OVCAR-5
SR = tested on: SR
OVCAR-4 = tested on: OVCAR-4
HCC 2998 = tested on: HCC 2998

Measured: GI50

CCCC(C)NC(=O)c1ccc(N(C)Cc2cnc3nc(N)nc(N)c3n2)cc1 (stereo not drawn)
inactive: NCI-H226 19.1 µM | KM12 31.3 µM | DU-145 27.2 µM | SK-MEL-5 10.1 µM | Malme-3M 16.9 µM | COLO 205 28.2 µM | EKVX 56.9 µM | PC-3 9.84 µM | NCI-H460 21.5 µM | HL-60 16.4 µM | OVCAR-3 21.4 µM | SW-620 28.4 µM | MCF7 23.3 µM | M14 11.5 µM | SK-MEL-2 21.8 µM | OVCAR-5 29.3 µM | SR 17.6 µM

Cc1cc(Cl)nc2ccc(Cc3ccc4nc(Cl)cc(C)c4c3)cc12
inactive: NCI-H226 93.3 µM | KM12 > 100 µM | DU-145 > 100 µM | SK-MEL-5 23.8 µM | Malme-3M 21.8 µM | COLO 205 > 100 µM | EKVX 44.3 µM | PC-3 42.7 µM | NCI-H460 41.5 µM | OVCAR-3 39.3 µM | SW-620 > 100 µM | MCF7 19.1 µM | M14 85.3 µM | SK-MEL-2 47.5 µM | OVCAR-5 > 100 µM | SR 85.3 µM | OVCAR-4 34.8 µM

O=c1c2ccccc2c2ccccc2c(=O)n1-c1cc2c3ccccc3ccc2c2ccccc12
inactive: NCI-H226 > 100 µM | KM12 > 100 µM | DU-145 > 100 µM | SK-MEL-5 > 100 µM | HCC 2998 22.3 µM | Malme-3M > 100 µM | COLO 205 > 100 µM | EKVX > 100 µM | PC-3 > 100 µM | NCI-H460 > 100 µM | OVCAR-3 > 100 µM | SW-620 > 100 µM | MCF7 91.8 µM | M14 > 100 µM | SK-MEL-2 > 100 µM | OVCAR-5 > 100 µM | OVCAR-4 > 100 µM

COc1cc(C(c2cc3c(cc2O)OCO3)N2CCCC2)cc(OC)c1OC (stereo not drawn)
inactive: NCI-H226 17.4 µM | KM12 18.2 µM | DU-145 19.3 µM | SK-MEL-5 16.4 µM | HCC 2998 28.5 µM | Malme-3M 6.73 µM | COLO 205 11.7 µM | EKVX 14.7 µM | PC-3 17.3 µM | HL-60 2.07 µM | OVCAR-3 17.7 µM | SW-620 3.4 µM | MCF7 26.9 µM | M14 24.5 µM | SK-MEL-2 19.6 µM | OVCAR-5 25.9 µM | OVCAR-4 17 µM

CCC1(c2ccc(OC)c(OC)c2)CCN(S(=O)(=O)c2ccc(C)cc2)C1 (stereo not drawn)
inactive: NCI-H226 > 100 µM | KM12 33.3 µM | DU-145 > 100 µM | SK-MEL-5 33.7 µM | HCC 2998 > 100 µM | COLO 205 > 100 µM | EKVX > 100 µM | PC-3 > 100 µM | NCI-H460 64 µM | OVCAR-3 > 100 µM | SW-620 > 100 µM | MCF7 > 100 µM | M14 > 100 µM | SK-MEL-2 > 100 µM | OVCAR-5 > 100 µM | SR > 10 µM | OVCAR-4 39.4 µM

CC1(C)C(=O)C2(C#N)CCC1C2 (stereo not drawn)
inactive: NCI-H226 > 100 µM | KM12 > 100 µM | DU-145 > 100 µM | SK-MEL-5 > 100 µM | HCC 2998 > 100 µM | Malme-3M > 100 µM | COLO 205 > 100 µM | EKVX > 100 µM | PC-3 > 100 µM | NCI-H460 > 100 µM | HL-60 > 100 µM | OVCAR-3 > 100 µM | SW-620 > 100 µM | MCF7 > 100 µM | M14 > 100 µM | SK-MEL-2 > 100 µM | OVCAR-5 > 100 µM | OVCAR-4 > 100 µM

CCCN(CCC)C(=O)c1c(N2CCN(C)CC2)c2cccnc2n2c(C)cnc12
inactive: NCI-H226 > 100 µM | KM12 > 100 µM | DU-145 > 100 µM | SK-MEL-5 > 100 µM | Malme-3M > 100 µM | COLO 205 > 100 µM | EKVX > 100 µM | PC-3 > 100 µM | NCI-H460 > 100 µM | HL-60 > 100 µM | OVCAR-3 94.8 µM | SW-620 17.5 µM | MCF7 > 100 µM | M14 > 100 µM | SK-MEL-2 > 100 µM | OVCAR-5 > 100 µM | SR 39.5 µM | OVCAR-4 > 100 µM

O=C1CCCCCCCCCCC1CCCCCBr (stereo not drawn)
inactive: NCI-H226 20.8 µM | KM12 23.1 µM | DU-145 28.7 µM | SK-MEL-5 15.3 µM | HCC 2998 18.5 µM | Malme-3M 15.8 µM | COLO 205 19.4 µM | EKVX 41.7 µM | PC-3 31.2 µM | NCI-H460 36.6 µM | OVCAR-3 17.4 µM | SW-620 42.5 µM | MCF7 37 µM | M14 33 µM | SK-MEL-2 16.9 µM | OVCAR-5 25.1 µM | SR 24.7 µM | OVCAR-4 16.9 µM

Cc1ccc2c(c1)nc(N)n[n+]2[O-]
inactive: NCI-H226 > 100 µM | KM12 > 100 µM | DU-145 > 100 µM | SK-MEL-5 > 100 µM | COLO 205 > 100 µM | EKVX > 100 µM | PC-3 > 100 µM | NCI-H460 > 100 µM | HL-60 > 100 µM | OVCAR-3 > 100 µM | SW-620 > 100 µM | MCF7 > 100 µM | M14 > 100 µM | SK-MEL-2 > 100 µM | OVCAR-5 > 100 µM | SR > 100 µM | OVCAR-4 > 100 µM

O=S(=O)(Nc1nc2ccccc2nc1Nc1cccc2ccccc12)c1ccccc1
inactive: NCI-H226 40.6 µM | KM12 5.61 µM | DU-145 > 100 µM | SK-MEL-5 10.7 µM | HCC 2998 2.16 µM | Malme-3M 4.48 µM | EKVX 8.97 µM | PC-3 6.46 µM | NCI-H460 4.41 µM | OVCAR-3 4.67 µM | SW-620 25.8 µM | MCF7 > 100 µM | M14 62.4 µM | SK-MEL-2 18.9 µM | OVCAR-5 > 100 µM | SR > 100 µM | OVCAR-4 1.24 µM

N/N=C1\C(OC(=O)Nc2ccccc2)=Nc2ccccc21
inactive: NCI-H226 16.8 µM | KM12 13.1 µM | DU-145 10.8 µM | SK-MEL-5 14.2 µM | HCC 2998 15.3 µM | Malme-3M 13.2 µM | COLO 205 17.3 µM | EKVX 18.2 µM | PC-3 15.4 µM | NCI-H460 10.9 µM | OVCAR-3 11.2 µM | SW-620 31.9 µM | MCF7 9.93 µM | M14 13.4 µM | SK-MEL-2 19.7 µM | OVCAR-5 45.1 µM | SR 25.6 µM | OVCAR-4 12.8 µM

OCCCCn1cc(Cn2ncc3c(SCc4ccccc4)ncnc32)nn1
inactive: NCI-H226 93.5 µM | KM12 26 µM | DU-145 58.5 µM | SK-MEL-5 21.7 µM | HCC 2998 56.4 µM | Malme-3M > 100 µM | COLO 205 31 µM | EKVX 30.6 µM | PC-3 61.2 µM | NCI-H460 41.4 µM | OVCAR-3 28.2 µM | SW-620 26.7 µM | MCF7 57 µM | M14 29.9 µM | SK-MEL-2 76.7 µM | OVCAR-5 > 100 µM | SR 27.7 µM | OVCAR-4 28.9 µM

C/C(=C/CC[C@](C)(OC1OC(CO)C(O)C(O)C1OC1OC(C)C(O)C(O)C1O)[C@H]1CC[C@]2(C)[C@@H]1CC[C@@H]1[C@@]3(C)CC[C@H](O)C(C)(C)[C@@H]3C[C@H](O)[C@]12C)CO (stereo partly drawn)
inactive: NCI-H226 > 100 µM | KM12 > 100 µM | DU-145 > 100 µM | SK-MEL-5 > 100 µM | Malme-3M > 100 µM | COLO 205 > 100 µM | EKVX > 100 µM | PC-3 > 100 µM | NCI-H460 > 100 µM | HL-60 > 100 µM | OVCAR-3 > 100 µM | SW-620 > 100 µM | MCF7 > 100 µM | M14 > 100 µM | OVCAR-5 > 100 µM | SR > 100 µM | OVCAR-4 > 100 µM

COc1ccc2c(C(=O)c3c(C)n(CCN4CCOCC4)c4ccccc34)cccc2c1
inactive: NCI-H226 > 100 µM | KM12 22.9 µM | DU-145 38 µM | SK-MEL-5 17.5 µM | Malme-3M 17.5 µM | COLO 205 12.2 µM | EKVX 31.6 µM | PC-3 12.7 µM | NCI-H460 29 µM | HL-60 4.93 µM | OVCAR-3 12.1 µM | SW-620 1.27 µM | MCF7 11.3 µM | M14 22.3 µM | SK-MEL-2 21.3 µM | OVCAR-5 > 100 µM | SR 19.2 µM | OVCAR-4 21.2 µM

COc1ccc(NC(C)=O)c(C(O)CCNC(C)=O)c1 (stereo not drawn)
inactive: NCI-H226 > 100 µM | KM12 > 100 µM | DU-145 > 100 µM | SK-MEL-5 > 100 µM | COLO 205 > 100 µM | EKVX > 100 µM | PC-3 > 100 µM | NCI-H460 > 100 µM | HL-60 > 100 µM | OVCAR-3 > 100 µM | SW-620 > 100 µM | MCF7 > 100 µM | M14 > 100 µM | SK-MEL-2 > 100 µM | OVCAR-5 > 100 µM | SR > 100 µM | OVCAR-4 > 100 µM

NCCO/C=C/C(N)C(=O)O (stereo not drawn) [AMINOETHOXYVINYLGLYCINE]
inactive: NCI-H226 > 100 µM | KM12 > 100 µM | DU-145 > 100 µM | SK-MEL-5 > 100 µM | HCC 2998 > 100 µM | COLO 205 > 100 µM | EKVX > 100 µM | PC-3 > 100 µM | NCI-H460 > 100 µM | HL-60 > 100 µM | OVCAR-3 > 100 µM | SW-620 > 100 µM | MCF7 > 100 µM | M14 > 100 µM | SK-MEL-2 > 100 µM | OVCAR-5 > 100 µM | OVCAR-4 > 100 µM
